Results reported in patent US4031211A, “Adriamycin esters, their preparation and use” (priority 1975, dated 1977).
Like-named read-outs stand apart in the source and are kept apart here.

Tests used:
Ascites sarcoma 180 = assay: Antitumor effect on ascites sarcoma 180 in mice; conditions: for LTS (long term survivors, > 60 days) / TC (median survival time as compared to untreated controls) / TOX (mice which showed toxic lesions at the autopsy): Table 1
Description: (§1) The compounds according to the invention were tested on several in vitro systems and experimental mouse tumors, in comparison with adriamycin.

solid sarcoma 180 = conditions: Table 2, i.v. per 5 days
Description: as §1

L 1210 leukemia = assay: Antitumor effect on L 1210 leukemia in mice
Description: as §1

Gross leukemia = assay: Antitumor effect on Gross leukemia in mice; conditions: for TC (median survival time as compared to untreated controls) / TOX (mice which showed toxic lesions at the autopsy): Table 1
Description: as §1

[1] = Table 4, i.p. on day 1, 2 mg./kg.
[2] = Table 4, i.p. on day 1, 4 mg./kg.
[3] = Table 4, i.p. on day 1, 8 mg./kg.
[4] = Table 1, first experiment, ip, day 1, 0.2 mg./kg.
[5] = Table 1, first experiment, ip, day 1, 1 mg./kg.
[6] = Table 1, first experiment, ip, day 1, 5 mg./kg.
[7] = Table 1, first experiment, ip, day 1, 10 mg./kg.
[8] = Table 1, second experiment, ip, day 1, 10 mg./kg.
[9] = Table 1, second experiment, ip, day 1, 12 mg./kg.
[10] = Table 1, second experiment, ip, day 1, 15 mg./kg.
[11] = Table 4, i.p. on day 1, 10 mg./kg.
[12] = Table 5, second experiment, iv, days 1,2,3, 3.5 mg./kg.

## COc1cccc2c1C(=O)c1c(O)c3c(c(O)c1C2=O)C[C@@](O)(C(=O)CO)C[C@@H]3O[C@H]1C[C@H](N)[C@H](O)[C@H](C)O1 [Adriamycin]
Ascites sarcoma 180; ip, day 1, 1 mg./kg.
  LTS (long term survivors, > 60 days): 3/10
  TC (median survival time as compared to untreated controls): 243%
  TOX (mice which showed toxic lesions at the autopsy): 0/10
Ascites sarcoma 180; ip, day 1, 5 mg./kg.
  LTS (long term survivors, > 60 days): 3/10
  TC (median survival time as compared to untreated controls): 150%
  TOX (mice which showed toxic lesions at the autopsy): 0/10
Ascites sarcoma 180; Table 3, ip, day 1, 2 mg./kg.
  LTS: 1/10
  TC: 203%
Ascites sarcoma 180; Table 3, ip, day 1, 4 mg./kg.
  LTS: 2/10
  TC: 242%
Ascites sarcoma 180; Table 3, ip, day 1, 8 mg./kg.
  LTS: 2/10
  TC: 127%
  TOX: 8/10
Ascites sarcoma 180; [1]
  LTS: 4/10
  TC: 271%
Ascites sarcoma 180; [2]
  LTS: 5/10
  TC: 493%
  TOX: 1/10
Ascites sarcoma 180; [3]
  LTS: 3/10
  TC: 317%
  TOX: 4/10
Ascites sarcoma 180; Table 5, ip, day 1, 2 mg./kg.
  LTS: 4/10
  TC: 271%
Ascites sarcoma 180; Table 5, ip, day 1, 4 mg./kg.
  LTS: 5/10
  TC: 493%
  TOX: 1/10
Ascites sarcoma 180; Table 5, ip, day 1, 8 mg./kg.
  LTS: 3/10
  TC: 317%
  TOX: 4/10
Solid sarcoma 180; 2.5 mg./kg.
  % tumor growth at day 11: 42%
Solid sarcoma 180; 3 mg./kg.
  % tumor growth at day 11: 33%
L 1210 leukemia; [4]
  TC (median survival time as compared to untreated controls): 111%
L 1210 leukemia; [5]
  TC (median survival time as compared to untreated controls): 133%
L 1210 leukemia; [6]
  TC (median survival time as compared to untreated controls): 139%
L 1210 leukemia; [7]
  TC (median survival time as compared to untreated controls): 150%
  TOX (mice which showed toxic lesions at the autopsy): 3/10
L 1210 leukemia; [8]
  LTS (long term survivors, > 60 days): 1/10
  TC (median survival time as compared to untreated controls): 139%
  TOX (mice which showed toxic lesions at the autopsy): 1/10
L 1210 leukemia; [9]
  TC (median survival time as compared to untreated controls): 167%
  TOX (mice which showed toxic lesions at the autopsy): 2/10
L 1210 leukemia; [10]
  TC (median survival time as compared to untreated controls): 100%
  TOX (mice which showed toxic lesions at the autopsy): 6/10
L 1210 leukemia; Table 3, ip, day 1, 2.5 mg./kg.
  TC: 122%
L 1210 leukemia; Table 3, ip, day 1, 5 mg./kg.
  TC: 155%
L 1210 leukemia; Table 3, ip, day 1, 10 mg./kg.
  LTS: 2/9
  TC: 233%
  TOX: 2/9
L 1210 leukemia; Table 4, i.p. on day 1, 2.5 mg./kg.
  TC: 122%
L 1210 leukemia; Table 4, i.p. on day 1, 5 mg./kg.
  TC: 155%
L 1210 leukemia; [11]
  LTS: 2/9
  TC: 233%
  TOX: 2/9
L 1210 leukemia; Table 5, ip, day 1, 2.5 mg./kg.
  TC: 122%
L 1210 leukemia; Table 5, ip, day 1, 5 mg./kg.
  TC: 155%
L 1210 leukemia; Table 5, ip, day 1, 10 mg./kg.
  LTS: 2/9
  TC: 233%
  TOX: 2/9
Gross leukemia; iv, days 1,2,3, 3.5 mg./kg.
  TC (median survival time as compared to untreated controls): 143%
  TOX (mice which showed toxic lesions at the autopsy): 1/10
Gross leukemia; iv, days 1,2,3, 4.5 mg./kg.
  TC (median survival time as compared to untreated controls): 171%
Gross leukemia; iv, days 1,2,3, 6 mg./kg.
  TOX (mice which showed toxic lesions at the autopsy): 4/10
Gross leukemia; Table 5, first experiment, iv, days 1,2,3, 3.5 mg./kg.
  TC: 157%
Gross leukemia; Table 5, first experiment, iv, days 1,2,3, 4.5 mg./kg.
  TC: 178%
Gross leukemia; [12]
  TC: 143%
  TOX: 1/10
Gross leukemia; Table 5, second experiment, iv, days 1,2,3, 4.5 mg./kg.
  TC: 171%

## CCCCCCCCCCCCCCCCCC(=O)OCC(=O)OCC(=O)C1(O)Cc2c(O)c3c(c(O)c2C(OC2CC(N)C(O)C(C)O2)C1)C(=O)c1c(OC)cccc1C3=O.Cl (stereo not shown) [adriamycin-14-0-stearoyl glycolate, Adriamycin-14-0-Stearoyl Glycolate Hydrochloride]
Ascites sarcoma 180
  antitumor effect compared with adriamycin: not significantly different from that of adriamycin
Ascites sarcoma 180; ip, day 1, 0.3 mg./kg.
  LTS (long term survivors, > 60 days): 1/10
  TC (median survival time as compared to untreated controls): 119%
Ascites sarcoma 180; ip, day 1, 1.6 mg./kg.
  LTS (long term survivors, > 60 days): 2/10
  TC (median survival time as compared to untreated controls): 222%
  TOX (mice which showed toxic lesions at the autopsy): 1/10
Ascites sarcoma 180; ip, day 1, 7.8 mg./kg.
  LTS (long term survivors, > 60 days): 1/10
  TC (median survival time as compared to untreated controls): 187%
  TOX (mice which showed toxic lesions at the autopsy): 1/10
Solid sarcoma 180; 2.5 mg./kg.
  % tumor growth at day 11: 58%
Solid sarcoma 180; 3 mg./kg.
  % tumor growth at day 11: 58%
Solid sarcoma 180; 3.5 mg./kg.
  % tumor growth at day 11: 52%
Solid sarcoma 180; 4 mg./kg.
  % tumor growth at day 11: 37%
L 1210 leukemia
  antitumor activity compared with adriamycin: as active as adriamycin
  toxicity compared with adriamycin: less toxic
L 1210 leukemia; [4]
  TC (median survival time as compared to untreated controls): 100%
L 1210 leukemia; [5]
  TC (median survival time as compared to untreated controls): 133%
  TOX (mice which showed toxic lesions at the autopsy): 1/10
L 1210 leukemia; [6]
  TC (median survival time as compared to untreated controls): 133%
L 1210 leukemia; [7]
  TC (median survival time as compared to untreated controls): 139%
L 1210 leukemia; [8]
  TC (median survival time as compared to untreated controls): 128%
L 1210 leukemia; [9]
  TC (median survival time as compared to untreated controls): 150%
L 1210 leukemia; [10]
  TC (median survival time as compared to untreated controls): 150%
Gross leukemia
  antitumor activity compared with adriamycin: as active as adriamycin
  toxicity compared with adriamycin: less toxic
Gross leukemia; iv, days 1,2,3, 4.5 mg./kg.
  TC (median survival time as compared to untreated controls): 143%
  TOX (mice which showed toxic lesions at the autopsy): 1/10
Gross leukemia; iv, days 1,2,3, 6 mg./kg.
  TC (median survival time as compared to untreated controls): 186%
Gross leukemia; iv, days 1,2,3, 7.5 mg./kg.
  TC (median survival time as compared to untreated controls): 186%
Gross leukemia; iv, days 1,2,3, 9 mg./kg.
  TC (median survival time as compared to untreated controls): 207%
